In patent US10570179B2, “Substituted urea depsipeptide analogs as activators of the CLPP endopeptidase” (priority 2016, dated 2020):
In brackets after ≈: the same amount, converted by molar mass. Where two headings read alike, the source gives them in different places. Numbered stars: 1 amine (or outer) side, 2 acyl side, 3 side chain; on linkers, the order of the positions; unused ones are H or OH. Bridge positions count the residues as written; N and C are the ends. Square brackets hold non-standard residues; d marks the D form. Peptide text beside a SMILES is read from it. * marks the point of attachment. Piperazine(2S-CO,4-Me) = CN1CCN[C@H](C(=O)O)C1; Phe(3-Me) = Cc1cccc(C[C@H](N)C(=O)O)c1; Pro(4S-Me) = C[C@@H]1CN[C@H](C(=O)O)C1; NH(4-Cl-2-F-phenyl) = Fc1cc(Cl)ccc1N*; Pro(4R-Me) = C[C@H]1CN[C@H](C(=O)O)C1; Hyp = O=C(O)[C@@H]1C[C@@H](O)CN1; NH(4-Me-phenyl) = Cc1ccc(N*)cc1; aThr = C[C@H](O)[C@H](N)C(=O)O; Pip = O=C(O)[C@@H]1CCCCN1; X3 = c1cc2c(cc1N*)OCCO2; CO = O=C([*:1])[*:2]

Columns and labels:
[1] = Plasma stability assay; assay type: in vitro ADME, human
Procedure, shortened: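 Compounds at 10 μM final in human or mouse plasma, incubated at 37 °C and sampled at 0, 3, 24 and 48 h in triplicate. Reactions quenched with cold acetonitrile containing warfarin internal standard; parent measured by LC-MS. Half-life from least-squares first-order fit.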

[2] = Microsomal metabolic stability; assay type: in vitro ADME, mouse
Procedure, shortened: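 CD-1 mouse liver microsomes (0.6381 mg/mL protein microsomal solution, 0.1 M potassium phosphate pH 7.4 with EDTA) were incubated with compound and an NADPH-regenerating system at 37 °C, in triplicate. Acetonitrile/warfarin quench at 0, 15, 30, 60, 120 and 240 min, then LCMS. Half-life came from a first-order least-squares fit.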

[3] = Solubility determination; assay type: physicochemical; conditions: for solubility kinetic at 10 min: 22 °C, aqueous buffer, kinetic from dmso stock
Procedure, shortened: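 DMSO stock spiked into DPBS at 100 µM final, in triplicate, shaken 10 min, then centrifuged 20 min at 22 °C. Supernatant quantified by UPLC-UV and single-ion-recording MS against DMSO calibration standards (0.098–100 µM), using 1/x²-weighted linear regression.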

[4] = plasma stability half-life, human plasma, 37° C.
[5] = microsomal metabolic stability half-life, mouse liver microsomes
[6] = solubility in DPBS, 100 μM test samples, LCMS, read-out: LCMS

| SMILES | Human (hr) [1, 4] | Mouse [2, 5] [h] | solubility kinetic at 10 min [3, 6] [µM] | μsol (μM) ([3]; solubility) [µM] | μsol (μg/mL) ([3]; solubility) [µg/mL] | Human ([1]; human, 10 μM) [h] | Mouse ([2]; CD-1, mouse, pH 7.4) | μsol (μM) [3] [µM] | solubility kinetic at 10 min [3] [µM] | Human [1, 4] [h] |
| --- | --- | --- | --- | --- | --- | --- | --- | --- | --- | --- |
| Cc1ccc(NC(=O)N[C@@H](Cc2cccc(C)c2)C(=O)N[C@@H]2C(=O)N3CCC[C@H]3C(=O)N3CCCC[C@H]3C(=O)N[C@@H](C)C(=O)N3C[C@H](C)C[C@H]3C(=O)O[C@H]2C)cc1 [Compound 1, (S)-3-(M-TOLYL)-2-(3-(P-TOLYL)UREIDO)-N-((2R,6S,8AS,14AS,20S,21S,23AS)-2,6,21-TRIMETHYL-5,8,14,19,23-PENTAOXOOCTADECAHYDRO-1H,5H,14H,19H-PYRIDO[2,1-I]DIPYRROLO[2,1-C:2′,1′-L][1]OXA[4,7,10,13]TETRAAZACYCLOHEXADECIN-20-YL)PROPANAMIDE] ({NH(4-Me-phenyl)-CO}-[Phe(3-Me)][aThr]P[Pip]A[Pro(4R-Me)]; ester 2-C) | >>48 hr | 5.22 | 22.9 (≈ 18 µg/mL) | 40.7 | 32.0 |  |  |  |  |  |
| Cc1cccc(C[C@H](NC(=O)Nc2ccc(Cl)cc2F)C(=O)N[C@H]2COC(=O)[C@@H]3C[C@@H](C)CN3C(=O)[C@H](C)NC(=O)[C@@H]3CN(C)CCN3C(=O)[C@@H]3CCCN3C2=O)c1 [Compound 13, (S)-2-(3-(4-CHLORO-2-FLUOROPHENYL)UREIDO)-3-(M-TOLYL)-N-((6AS,12S,15AS,17R,21S,23AS)-2,17,21-TRIMETHYL-6,11,15,20,23-PENTAOXOOCTADECAHYDRO-2H,6H,11H,15H-PYRAZINO[2,1-I]DIPYRROLO[2,1-C:2′,1′-L][1]OXA[4,7,10,13]TETRAAZACYCLOHEXADECIN-12-YL)PROPANAMIDE] ({NH(4-Cl-2-F-phenyl)-CO}-[Phe(3-Me)]SP[Piperazine(2S-CO,4-Me)]A[Pro(4R-Me)]; ester 2-C) |  |  |  |  |  | 67.3 ± 13.7 | 0.49 ± 0.03 h | 38.3 ± 2.2 | 40.1 ± 4.6 (≈ 33.1 µg/mL) |  |
| Cc1ccc(NC(=O)N[C@@H](Cc2cccc(C)c2)C(=O)N[C@@H]2C(=O)N3CCC[C@H]3C(=O)N3CCCC[C@H]3C(=O)N[C@@H](C)C(=O)N3C[C@@H](C)C[C@H]3C(=O)O[C@H]2C)cc1 [Compound 45, (S)-3-(M-TOLYL)-2-(3-(P-TOLYL)UREIDO)-N-((2S,6S,8AS,14AS,20S,21S,23AS)-2,6,21-TRIMETHYL-5,8,14,19,23-PENTAOXOOCTADECAHYDRO-1H,5H,14H,19H-PYRIDO[2,1-I]DIPYRROLO[2,1-C:2′,1′-L][1]OXA[4,7,10,13]TETRAAZACYCLOHEXADECIN-20-YL)PROPANAMIDE] ({NH(4-Me-phenyl)-CO}-[Phe(3-Me)][aThr]P[Pip]A[Pro(4S-Me)]; ester 2-C) |  | 2.35 ± 0.14 | 44.5 ± 2.7 (≈ 35 µg/mL) | 44.7 ± 4.2 |  |  |  |  |  | >50 |
| Cc1cccc(C[C@H](NC(=O)Nc2ccc3c(c2)OCCO3)C(=O)N[C@@H]2C(=O)N3C[C@H](O)C[C@H]3C(=O)N3CCCC[C@H]3C(=O)N[C@@H](C)C(=O)N3C[C@H](C)C[C@H]3C(=O)O[C@H]2C)c1 [Compound 28, (S)-2-(3-(2,3-DIHYDROBENZO[B][1,4]DIOXIN-6-YL)UREIDO)-N-((2R,6S,8AS,14AS,16R,20S,21S,23AS)-16-HYDROXY-2,6,21-TRIMETHYL-5,8,14,19,23-PENTAOXOOCTADECAHYDRO-1H,5H,14H,19H-PYRIDO[2,1-I]DIPYRROLO[2,1-C:2′,1′-L][1]OXA[4,7,10,13]TETRAAZACYCLOHEXADECIN-20-YL)-3-(M-TOLYL)PROPANAMIDE] ({X3-CO}-[Phe(3-Me)][aThr][Hyp][Pip]A[Pro(4R-Me)]; ester 2-C) |  |  |  |  |  | >50 | 0.79 ± .795 h | 30.2 ± 0.2 | 34.7 ± 4.7 (≈ 29.4 µg/mL) |  |
